Reference: paper PMC6017567, “Chemical Constituents from Apios americana and Their Inhibitory Activity on Tyrosinase” (Molecules : A Journal of Synthetic Chemistry and Natural …, 2018)
Like-named read-outs stand apart in the source and are kept apart here.

How the values were obtained:
tyrosinase [1] = target: T1, tyrosinase (Agaricus bisporus, UniProt C7FF04); assay type: biochemical; settings: preincubated with enzyme
Target sequence in this assay (C7FF04 2-392): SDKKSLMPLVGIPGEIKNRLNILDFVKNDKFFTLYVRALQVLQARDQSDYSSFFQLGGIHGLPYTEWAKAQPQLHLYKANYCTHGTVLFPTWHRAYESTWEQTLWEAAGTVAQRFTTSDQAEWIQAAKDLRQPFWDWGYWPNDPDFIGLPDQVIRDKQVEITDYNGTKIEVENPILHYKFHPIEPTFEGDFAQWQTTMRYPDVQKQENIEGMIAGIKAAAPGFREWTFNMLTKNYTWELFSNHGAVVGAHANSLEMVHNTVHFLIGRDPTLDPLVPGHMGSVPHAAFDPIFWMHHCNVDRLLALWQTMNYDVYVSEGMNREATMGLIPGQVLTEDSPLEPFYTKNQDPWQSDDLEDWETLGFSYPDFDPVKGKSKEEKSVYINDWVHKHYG
Method: The amount of L-DOPA converted from L-tyrosine as substrate of this enzyme was quantified in the presence of each respective compound [7].
Briefly, tyrosinase (~45 U/mL, 130 µL) in 50 µM phosphate buffer (pH 6.8) was added to 96-well plates. Twenty microliters of each respective compound (1 mM) were dissolved in MeOH, and compounds 2 and 8 (diluted to 0.065 mM) were added. Finally, 50 µL 1.5 mM L-tyrosine were added as a substrate. After initiating the enzyme reaction at 37 °C, the products were measured using UV-Vis determination (wavelength, 475 nm) for 20 min. The inhibition ratio was calculated using the following Equation (3):Inhibitory activity (%) = [(Δcontrol − Δinhibitor)/Δcontrol] × 100(3)

tyrosinase [2] = target: T1, tyrosinase; assay: Enzyme kinetics (Lineweaver-Burk and Dixon plots); assay type: biochemical; settings: Lineweaver-Burk plot
Method: Enzyme kinetics are used to confirm the binding positions between an enzyme and inhibitor [7]. This study confirmed the effect of the substrate concentration on tyrosinase activity using four different concentrations. The initial velocity (vi) was calculated at steady-state. A Lineweaver–Burk plot was represented by 1/v versus 1/substrate in the presence of inhibitor according to enzyme kinetics theory. Their regression lines intersected the y-axis at the same point and the x-axis at different points.
Target sequence in this assay (C7FF04 2-392): as above

tyrosinase [3] = target: T1, tyrosinase; assay: Slow-binding (time-dependent) inhibition kinetics; assay type: biochemical; parameters: purchased Sigma-Aldrich T3824; settings: for Time dependence of interaction with tyrosinase: time-course enzyme assay
Method: These curves were calculated by the following Equation (1):(1) [P]=vst+vi−vs/kobs[1−exp(−kobst)] where [P] is the concentration of product from the catalytic reaction, and the first-order rate constant (kobs) is the slow-binding constant corresponding to vi and vs.
The plot of kobs versus [inhibitor, I] is represented in Figure 3B.
First, the initial enzyme–ligand complex (E·I) forms rapidly, and then the isomerized enzyme–ligand complex (E*·I) forms slowly. Using Equation (3), k3 , k4 , and Kiapp kinetic parameters were calculated as 0.0041 S^−1, 0.0004 S^−1, and 35.8 µM, respectively (Table 2).
Target sequence in this assay (C7FF04 1-392 limits assumed): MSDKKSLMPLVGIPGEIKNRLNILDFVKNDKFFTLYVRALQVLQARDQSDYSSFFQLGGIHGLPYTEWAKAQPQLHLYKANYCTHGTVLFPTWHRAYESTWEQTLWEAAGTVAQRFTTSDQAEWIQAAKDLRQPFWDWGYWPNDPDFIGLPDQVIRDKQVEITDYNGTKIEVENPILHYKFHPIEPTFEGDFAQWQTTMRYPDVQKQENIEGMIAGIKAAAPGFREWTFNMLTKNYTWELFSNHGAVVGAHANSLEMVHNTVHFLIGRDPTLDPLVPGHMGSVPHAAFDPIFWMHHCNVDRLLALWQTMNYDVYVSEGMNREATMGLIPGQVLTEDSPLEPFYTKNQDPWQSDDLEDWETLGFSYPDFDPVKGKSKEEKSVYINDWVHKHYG

tyrosinase [4] = target: T1, tyrosinase; parameters: method as in earlier work; settings: ref 8 (Chang et al.); cited from earlier work
Target sequence in this assay (C7FF04 2-392): as the sequence (C7FF04 2-392) above

[5] = time-dependent inhibition, kobs versus [I]

## O=c1c2c(O)cc(O)cc2oc2oc3cc(O)ccc3c12 [compound 2, lupinalbin A]
Tyrosinase [1]
  Increase of inhibitory activity by preincubation compared with IC50 in the absence of preincubation: 3 fold
Tyrosinase [2]
  Binding Mode: Competitive
Tyrosinase [3]
  Ki: 35.8 µM
  Time dependence of interaction with tyrosinase: time-dependent manner
Tyrosinase [3]; [5]
  k5: 0.0041 S^−1
  k6: 0.0004 S^−1

## O=c1c(-c2ccc(O)cc2)coc2cc(O)c(O)cc12 [6,7,4′-trihydroxyisolflavone]
Tyrosinase [4]
  Binding Mode: competitive inhibitor

## O=c1c(-c2ccc(O)cc2O)coc2cc(O[C@@H]3O[C@H](CO[C@@H]4O[C@H](CO)[C@@H](O)[C@H](O)[C@H]4O)[C@@H](O)[C@H](O)[C@H]3O)cc(O)c12 [compound 8, 2′-hydroxygenistein-7-O-gentibioside]
Tyrosinase [2]
  Binding Mode: Competitive
Tyrosinase [3]
  Time dependence of interaction with tyrosinase: did not exhibit this pattern
